Measured values published in PMC12223813, “Antiproliferative and Trypanocidal Activity of Ivermectin Bioconjugates” (ACS Omega, 2025).
Like-named read-outs stand apart in the source and are kept apart here.

Experiments:
[1] = tested on: HCT-116, human primary colon cancer cell line; test: Antiproliferative activity, MTT assay; assay type: cell-based; conditions: for IC50: Homo sapiens, HCT-116, 72 h, MTT, mean ± SD; for HCT-116 SI: SI = IC50 HaCaT/IC50 HCT-116
Protocol: (§1) Additionally, to assess the selectivity of these compounds toward cancer cells, we included an immortalized keratinocyte cell line from adult human skin (HaCaT) in the antiproliferative activity tests. Doxorubicin served as the reference anticancer drug.
(§2) The culture media were enriched with 10% fetal bovine serum (FBS, Sigma-Aldrich, St. Louis, MO, USA), 20 mM HEPES (Biowest, Nuaillé, France), and antibiotics (100 U/mL penicillin and 100 μg/mL streptomycin) obtained from Gibco (Grand Island, NY, USA). The cells were maintained in a humidified incubator at 37 °C with 5% CO2 until they reached 80–90% confluence, after which they were used for further experiments.
(§3) To assess the cytotoxicity, the cells (0.5 × 10^4/well) were plated in 96-well plates and allowed to adhere for 24 h. The MTT (3-(4,5-dimethylthiazol-2-yl)-2,5-diphenyltetrazolium bromide) assay was used to evaluate the cytotoxic effects of IVR bioconjugates on all tested cell lines. After 24 h incubation, cells were exposed to varying concentrations (1 to 100 μM) of the test compounds for 72 h. Following the treatment, the medium was discarded, and a 0.5 mg mL^–1 MTT solution was added to each well and incubation was continued for another 4 h. Mitochondrial enzyme activity facilitated the formation of formazan crystals, which were subsequently dissolved in DMSO-isopropanol (1:1, v/v), producing a violet-colored solution. A 100 μL aliquot of this solution was transferred to the well, and absorbance was recorded at 570 nm using a MultiscanGo spectrophotometer (ThermoFisher Scientific, Carlsbad, CA, USA).
(§4) Cytotoxicity was quantified by comparing the absorbance of the treated cells to that of untreated controls using the formula: [A]/[B] × 100, where [A] represents the absorbance of the treated sample and [B] corresponds to the absorbance of the control sample. A decrease in MTT levels reflects a decrease in cell viability.

[2] = tested on: PC3, human metastatic prostate cancer cell line; test: Antiproliferative activity, MTT assay; assay type: cell-based; conditions: for IC50: Homo sapiens, 72 h, MTT, mean ± SD; for PC3 SI: SI = IC50 HaCaT/IC50 PC3
Protocol: as §1, §2, §3, §4

[3] = tested on: MDA-MB-231, human triple-negative breast cancer cell line; test: Antiproliferative activity, MTT assay; assay type: cell-based; conditions: for IC50: Homo sapiens, MDA-MB-231, 72 h, MTT, mean ± SD; for MDA-MB-231 SI: SI = IC50 HaCaT/IC50 MDA-MB-231
Protocol: as §1, §2, §3, §4

[4] = tested on: A549, human lung cancer cell line; test: Antiproliferative activity, MTT assay; assay type: cell-based; conditions: for IC50: Homo sapiens, A549, 72 h, MTT, mean ± SD; for A549 SI: SI = IC50 HaCaT/IC50 A549
Protocol: as §1, §2, §3, §4

[5] = tested on: bloodstream forms of T. b. brucei (427-221a clone); test: microbe, parasite or virus in culture; conditions: for GI50: Trypanosoma brucei, 72 h, read-out: T. brucei GI50, bloodstream forms, 72 h total (24 h + 48 h with resazurin), mean ± SD of three independent experiments
Protocol: (§5) The trypanocidal and cytotoxic activities of the newly synthesized IVR bioconjugates and their conjugation partners were determined for bloodstream forms of T. brucei brucei and human myeloid HL-60 cells in vitro using the resazurin cell viability assay as previously described.
(§6) Test compounds were assayed at 10-fold dilutions ranging from 100 μM to 1 nM in the presence of 0.9% DMSO. Controls were grown in the culture medium containing only 0.9% DMSO. The assays were cultured in an incubator at 37 °C in a humidified atmosphere containing 5% CO2. After 24 h incubation, 20 μL of 0.5 mM resazurin (prepared in sterile PBS) was added, and the cultures were grown for another 48 h. Then, the proliferation of the cells was determined by measuring the absorbance at 570 nm (test wavelength) and 630 nm (reference wavelength) using a microplate reader.

[6] = tested on: HaCaT, human immortalized keratinocyte cell line; test: Cytotoxicity toward normal cells, MTT assay; assay type: cell-based; conditions: 72 h, mean ± SD
Protocol: as §1, §2, §3, §4

[7] = tested on: human promyelocytic leukemia HL-60 cells; test: Cytotoxic activity, resazurin cell viability assay; assay type: cell-based; conditions: 72 h total (24 h + 48 h with resazurin), mean ± SD of three independent experiments
Protocol: as §5, §6

Compound	IC50 [1] [µM]	HCT-116 SI [1]	IC50 [2] [µM]	PC3 SI [2]	IC50 [3] [µM]	MDA-MB-231 SI [3]	IC50 [4] [µM]	A549 SI [4]	selectivity GI50 ratio ([5]; GI50(HL-60)/GI50(T. brucei))	GI50 [5] [µM]	IC50 [6] [µM]	GI50 [7] [µM]	selectivity GI50 ratio [5]
C[C@H]1[C@H](OC(=O)CCC(=O)O)O[C@@H]2O[C@@]3(C)CC[C@H]4[C@H](C)CC[C@@H]1[C@@]24OO3 [artesunate, reference compound]	37.8 ± 4.2	0.2	48.5 ± 5.7	0.1	12.6 ± 3.9	0.5	24 ± 6.9	0.2	8.6	3.6 ± 0.2	5.7 ± 0.1	30.8 ± 9	
Cc1cn([C@H]2C[C@H](N=[N+]=[N-])[C@@H](CO)O2)c(=O)[nH]c1=O [azidothymidine, reference compound]	60.2 ± 9.7	>1.7	64.3 ± 3.7	>1.6	52.2 ± 4.1	>1.9	72.1 ± 11.6	>1.4	>5.2	> 10	> 100	> 100	
C=C(C)[C@@H]1CC[C@]2(C(=O)O)CC[C@]3(C)[C@H](CC[C@@H]4[C@@]5(C)CC[C@H](O)C(C)(C)[C@@H]5CC[C@]43C)[C@@H]12 [betulinic acid, reference compound]	80.1 ± 6.1	>1.2	66.6 ± 2.3	>1.5	46.5 ± 4.6	>2.2	98.1 ± 3.1	>1.0	2.8	15.4 ± 4.4	> 100	42.5 ± 2.5	
C=C[C@H]1CN2CC[C@H]1C[C@H]2[C@H](O)c1ccnc2ccccc12 [cinchonidine, reference compound]	87.1 ± 12.1	>1.1	86.7 ± 3.9	>1.2	> 100	∼1.0	> 100	∼1.0	>47.6	2.1 ± 0.6	> 100	> 100	
C=C[C@H]1C[N@@]2CC[C@H]1C[C@@H]2[C@@H](O)c1ccnc2ccccc12 [cinchonine, reference compound]	78.2 ± 5.8	>1.3	74.3 ± 5.4	>1.3	65.3 ± 2.8	>1.5	> 100	∼1.0	>58.8	1.7 ± 0.6	> 100	> 100	
CC[C@H](C)[C@H]1O[C@]2(CC[C@@H]1C)C[C@@H]1C[C@@H](C/C=C(\C)[C@@H](O[C@H]3C[C@H](OC)[C@@H](O[C@H]4C[C@H](OC)[C@@H](O)[C@H](C)O4)[C@H](C)O3)[C@@H](C)/C=C/C=C3\CO[C@@H]4[C@H](O)C(C)=C[C@@H](C(=O)O1)[C@]34O)O2 [compound 1, Ivermectin]	9.9 ± 1.1	1.3	33.9 ± 6.3	0.4	8.7 ± 3.2	1.4	7.2 ± 1.4	1.8			12.6 ± 4.3	30 ± 1.1	10.3
C=C[C@H]1CN2CC[C@H]1C[C@@H]2[C@@H](OC(=O)O[C@@H]1/C(C)=C/C[C@@H]2C[C@@H](C[C@]3(CC[C@H](C)[C@@H]([C@@H](C)CC)O3)O2)OC(=O)[C@@H]2C=C(C)[C@@H](O)[C@H]3OC/C(=C\C=C\[C@@H]1C)[C@]32O)c1ccnc2ccc(OC)cc12 [compound 5, Ivermectin–Quinidine Conjugate]	13.8 ± 3.5	1.1	12.4 ± 2.1	1.2	10.1 ± 1.4	1.5	42.3 ± 0.5	0.4	17.6	1.3 ± 0.4	14.9 ± 1.6	22.9 ± 11.2	
C=C[C@H]1CN2CC[C@H]1C[C@H]2[C@H](OC(=O)O[C@@H]1/C(C)=C/C[C@@H]2C[C@@H](C[C@]3(CC[C@H](C)[C@@H]([C@@H](C)CC)O3)O2)OC(=O)[C@@H]2C=C(C)[C@@H](O)[C@H]3OC/C(=C\C=C\[C@@H]1C)[C@]32O)c1ccnc2ccccc12 [compound 7, Ivermectin–Cinchonidine Conjugate]	20.1 ± 3.7	2.5	7.2 ± 3.8	7.0	22.4 ± 1.2	2.2	13.6 ± 1.1	3.7	20.5	2.3 ± 0.3	50.3 ± 4.9	47.2 ± 3.7	
CC[C@H](C)[C@H]1O[C@]2(CC[C@@H]1C)C[C@@H]1C[C@@H](C/C=C(\C)[C@@H](OC(=O)N[C@H]3CCc4cc(OC)c(OC)c(OC)c4-c4ccc(SC)c(=O)cc43)[C@@H](C)/C=C/C=C3\CO[C@@H]4[C@H](O)C(C)=C[C@@H](C(=O)O1)[C@]34O)O2 [compound 8]	7.5 ± 1.6	>13.3	85.1 ± 9.8	>1.2	6.6 ± 0.6	>15.2	12.4 ± 2.6	>8.1	7.2	1.4 ± 0.5	> 100	10.1 ± 4.9	
CCC(C)C1OC2(CCC1C)CC1CC(CC=C(C)C(OC(=O)OCC3OC(n4cc(C)c(=O)[nH]c4=O)CC3N=[N+]=[N-])C(C)C=CC=C3COC4C(O)C(C)=CC(C(=O)O1)C34O)O2 (stereo not shown) [compound 11, Ivermectin–Azidothymidine Conjugate]	7.7 ± 3.1	3.4	8.1 ± 3.2	3.2	12.5 ± 1.5	2.1	8.2 ± 1.9	3.2	5.6		26.1 ± 3.3	11.1 ± 4.1	
C=C(C)C1CCC2(C(=O)OCc3cn(CC(=O)OC4C(C)=CCC5CC(CC6(CCC(C)C(C(C)CC)O6)O5)OC(=O)C5C=C(C)C(O)C6OCC(=CC=CC4C)C56O)nn3)CCC3(C)C(CCC4C5(C)CCC(O)C(C)(C)C5CCC43C)C12 (stereo not shown) [compound 15, Ivermectin–Betulinic Acid Conjugate]	70.1 ± 6.4	>1.4	93.9 ± 6.4	>1.1	> 100	∼1.0	> 100	∼1.0	>4.6	21.9 ± 2.1	> 100	> 100	
COc1cccc2c1C(=O)c1c(O)c3c(c(O)c1C2=O)C[C@@](O)(C(=O)CO)C[C@@H]3O[C@H]1C[C@H](N)[C@H](O)[C@H](C)O1 [doxorubicin, reference compound]	0.6 ± 0.02		0.6 ± 0.02		1.83 ± 0.1		0.63 ± 0.2				0.29 ± 0.1		
CC[n+]1c(-c2ccccc2)c2cc(N)ccc2c2ccc(N)cc21 [ethidium bromide, reference compound]									202			9.3 ± 2.6	
O=c1[nH]c(=O)n([C@H]2C[C@H](O)[C@@H](CO)O2)cc1F [floxuridine, reference compound]	11.7 ± 4.2	2.1	15.7 ± 3.3	1.5	22.2 ± 3.4	1.1	26.4 ± 3.8	0.9	>45.5	2.2 ± 0.4	24.3 ± 7.3	> 100	
Cc1ccc(C(=O)Nc2ccc(S(=O)(=O)O)c3cc(S(=O)(=O)O)cc(S(=O)(=O)O)c23)cc1NC(=O)c1cccc(NC(=O)Nc2cccc(C(=O)Nc3cc(C(=O)Nc4ccc(S(=O)(=O)O)c5cc(S(=O)(=O)O)cc(S(=O)(=O)O)c45)ccc3C)c2)c1 [suramin, reference compound]										0.039 ± 0.004		> 100	
